The text below walks through data of US4087520A, “Lowering blood pressure with new L-3-(3,4-dihydroxyphenyl)-2-methyl-alanine peptides” (Boehringer Mannheim GmbH, priority 1975, dated 1978).

For the experiment, the system named is blood pressure of rats with arterial high pressure. As to the kind of experiment: Blood pressure depression in awake hypertensive rats (11-deoxycorticosteroneacetate plus common salt), direct arterial catheter measurement. It is filed as in vivo. The following applies: hypertensive rats (10% sodium chloride in feed + 11-deoxycorticosteroneacetate), 0.6 millimole/kg perorally in 1% methyl cellulose, 4 hours after oral application, median of at least 6 measurements. As for the experimental part:
The test animals were rats into which arterial catheters had been implanted in a sterile operation via the arteria femoralis into the aorta. It was possible to measure the animals' blood pressure in the awake state directly in the blood with a transducer (Statham Transducer Type TP 23 D 6) via a carrier frequency measuring bridge. The animals were treated by administration of 10% common salt (sodium chloride) in their feed and, starting on the sixth week of their life, two injections per week of 5 mg at a time of 11-deoxycorticosteroneacetate per animal and thus developed an arterial high pressure in the median with values of […]. The test compounds were administered to the animals as follows: After the blood pressure control values had been determined, the animals received the test compound perorally suspended in 10 ml of 1% methyl cellusose solution in a dosage of 0.6 millimole/kg and measurements were taken 4 hours after oral application of the substance.
The values set forth in the Table represent in each case the median of at least 6 individual measurements of blood pressure depression (in mm Hg) per applied substance.
Take `C[C@H](N)C(=O)N[C@@](C)(Cc1ccc(O)c(O)c1)C(=O)O` [L-Alanyl-L-3-(3,4-dihydroxyphenyl)-2-methyl-alanine]: the “Blood Pressure Reduction” value is 51 ± 6.0 mm Hg.

Consider `C[C@@](Cc1ccc(O)c(O)c1)(NC(=O)[C@@H](N)CO)C(=O)O` [L-Seryl-L-3-(3,4-dihydroxyphenyl)-2-methyl-alanine], for which the “Blood Pressure Reduction” value is recorded as 52 ± 7.5 mm Hg.

With `C[C@H](N)C(=O)N[C@@H](C)C(=O)N[C@@](C)(Cc1ccc(O)c(O)c1)C(=O)O` [L-Alanyl-L-alanyl-L-3-(3,4-dihydroxyphenyl)-2-methylalanine], the “Blood Pressure Reduction” value stood at 58 ± 5.8 mm Hg.

With `C[C@@](Cc1ccc(O)c(O)c1)(NC(=O)CN)C(=O)O` [Glycyl-L-3-(3,4-dihydroxyphenyl)-2-methyl-alanine], the “Blood Pressure Reduction” value was 37 ± 9.1 mm Hg.

With `C[C@](N)(Cc1ccc(O)c(O)c1)C(=O)O` [α-Methyl-Dopa, L-3-(3,4-dihydroxyphenyl)-2-methyl-alanine], the “Blood Pressure Reduction” value amounted to 33 ± 4.9 mm Hg.
